# Experimental data: ChEMBL document CHEMBL3885861, “Open TG-GATES”
# Organism: Rattus norvegicus
# Experiment: Open TG-GATES - Regimen: Daily Repeat
# Type: toxicity, organism-based, Sprague-Dawley
# Set-up: regimen Daily Repeat, gender Male, age 6 weeks
# Settings: in vivo, po, route gavage; for APTT / Bas / Eos / Fbg / Hb / Ht / Lym / MCH / MCHC / MCV / Mono / Neu / PT / Plat / RBC / Ret / WBC: tissue Blood; for KIDNEY_L / KIDNEY_R / KIDNEY_TOTAL: tissue Kidney; for LIVER: tissue Liver; for ALP / ALT / AST / BUN / CRE / DBIL / GLC / K / Na / PL / RALB / TBIL / TC / TG / TP / gamma-GTP: tissue Plasma
# [1] = 0 mg/kg, 72 h, dose level Control, time 3 day
# [2] = 0 mg/kg, […], dose level Control, time 7 day
# [3] = 0 mg/kg, […], dose level Control, time 14 day
# [4] = 0 mg/kg, […], dose level Control, time 28 day
# [5] = 25 mg/kg, 72 h, dose level Low, time 3 day
# [6] = 25 mg/kg, […], dose level Low, time 7 day
# [7] = 25 mg/kg, […], dose level Low, time 14 day
# [8] = 25 mg/kg, […], dose level Low, time 28 day
smiles,measurement,setting,value
CN1C(=O)CN=C(c2ccccc2)c2cc(Cl)ccc21 [DIAZEPAM],TERMINAL_BW,[1],246.7 g
same,APTT,[1],16.3 s
same,Bas,[1],0%
same,Eos,[1],1.2%
same,Fbg,[1],235.6 mg/dL
same,Hb,[1],13.5 g/dL
same,Ht,[1],40.6%
same,Lym,[1],78.6%
same,MCH,[1],21.4 pg
same,MCHC,[1],33.2%
same,MCV,[1],64.4 fL
same,Mono,[1],6.4%
same,Neu,[1],14.2%
same,PT,[1],12 s
same,Plat,[1],114.2 x10_4/uL
same,RBC,[1],630.6 x10_4/ul
same,Ret,[1],6.6%
same,WBC,[1],104 x10_2/uL
same,KIDNEY_L,[1],1.1 g
same,KIDNEY_R,[1],1.1 g
same,KIDNEY_TOTAL,[1],2.2 g
same,LIVER,[1],12.5 g
same,ALP,[1],817.2 IU/L
same,ALT,[1],34.2 IU/L
same,AST,[1],59.4 IU/L
same,BUN,[1],17.2 mg/dL
same,CRE,[1],0.5 mg/dL
same,DBIL,[1],0.006 mg/dL
same,GLC,[1],198.8 mg/dL
same,K,[1],5 meq/L
same,Na,[1],138.9 meq/L
same,PL,[1],154 mg/dL
same,RALB,[1],4 g/dL
same,TBIL,[1],0.3 mg/dL
same,TC,[1],78.4 mg/dL
same,TG,[1],115.4 mg/dL
same,TP,[1],6 g/dL
same,gamma-GTP,[1],1.6 IU/L
same,TERMINAL_BW,[2],289.2 g
same,TERMINAL_BW,[3],333.2 g
same,TERMINAL_BW,[4],416.1 g
same,APTT,[2],16 s
same,Bas,[2],0%
same,Eos,[2],1%
same,Fbg,[2],237.8 mg/dL
same,Hb,[2],14.2 g/dL
same,Ht,[2],42.8%
same,Lym,[2],79.2%
same,MCH,[2],21.8 pg
same,MCHC,[2],33.2%
same,MCV,[2],65.6 fL
same,Mono,[2],9.4%
same,Neu,[2],11%
same,PT,[2],11.4 s
same,Plat,[2],106.5 x10_4/uL
same,RBC,[2],653.4 x10_4/ul
same,Ret,[2],6.3%
same,WBC,[2],120.8 x10_2/uL
same,APTT,[3],16.4 s
same,Bas,[3],0%
same,Eos,[3],0.6%
same,Fbg,[3],234 mg/dL
same,Hb,[3],15.2 g/dL
same,Ht,[3],45.6%
same,Lym,[3],80.6%
same,MCH,[3],20.9 pg
same,MCHC,[3],33.3%
same,MCV,[3],62.9 fL
same,Mono,[3],3.6%
same,Neu,[3],14.8%
same,PT,[3],12 s
same,Plat,[3],92.8 x10_4/uL
same,RBC,[3],725.4 x10_4/ul
same,Ret,[3],4.5%
same,WBC,[3],149.8 x10_2/uL
same,APTT,[4],17 s
same,Bas,[4],0%
same,Eos,[4],1.2%
same,Fbg,[4],227.2 mg/dL
same,Hb,[4],15.8 g/dL
same,Ht,[4],47.5%
same,Lym,[4],83.6%
same,MCH,[4],19 pg
same,MCHC,[4],33.3%
same,MCV,[4],57 fL
same,Mono,[4],6.4%
same,Neu,[4],9%
same,PT,[4],12.3 s
same,Plat,[4],102.6 x10_4/uL
same,RBC,[4],833 x10_4/ul
same,Ret,[4],2.2%
same,WBC,[4],146.4 x10_2/uL
same,KIDNEY_L,[2],1.2 g
same,KIDNEY_R,[2],1.3 g
same,KIDNEY_TOTAL,[2],2.5 g
same,KIDNEY_L,[3],1.3 g
same,KIDNEY_R,[3],1.3 g
same,KIDNEY_TOTAL,[3],2.7 g
same,KIDNEY_L,[4],1.4 g
same,KIDNEY_R,[4],1.5 g
same,KIDNEY_TOTAL,[4],2.9 g
same,LIVER,[2],14.8 g
same,LIVER,[3],14.8 g
same,LIVER,[4],17.1 g
same,ALP,[2],843.2 IU/L
same,ALT,[2],37.2 IU/L
same,AST,[2],60.4 IU/L
same,BUN,[2],17.8 mg/dL
same,CRE,[2],0.5 mg/dL
same,DBIL,[2],0.02 mg/dL
same,GLC,[2],188.8 mg/dL
same,K,[2],5.1 meq/L
same,Na,[2],137.6 meq/L
same,PL,[2],184.8 mg/dL
same,RALB,[2],4.2 g/dL
same,TBIL,[2],0.3 mg/dL
same,TC,[2],92.8 mg/dL
same,TG,[2],164.6 mg/dL
same,TP,[2],6.4 g/dL
same,gamma-GTP,[2],1.6 IU/L
same,ALP,[3],714 IU/L
same,ALT,[3],37.4 IU/L
same,AST,[3],68.2 IU/L
same,BUN,[3],19.4 mg/dL
same,CRE,[3],0.6 mg/dL
same,DBIL,[3],0.01 mg/dL
same,GLC,[3],183.2 mg/dL
same,K,[3],4.6 meq/L
same,Na,[3],141.1 meq/L
same,PL,[3],149.2 mg/dL
same,RALB,[3],4 g/dL
same,TBIL,[3],0.3 mg/dL
same,TC,[3],72 mg/dL
same,TG,[3],131.8 mg/dL
same,TP,[3],6.4 g/dL
same,gamma-GTP,[3],1 IU/L
same,ALP,[4],591.2 IU/L
same,ALT,[4],28.4 IU/L
same,AST,[4],54.2 IU/L
same,BUN,[4],19.8 mg/dL
same,CRE,[4],0.7 mg/dL
same,DBIL,[4],0.002 mg/dL
same,GLC,[4],182.8 mg/dL
same,K,[4],4.5 meq/L
same,Na,[4],139.4 meq/L
same,PL,[4],147.8 mg/dL
same,RALB,[4],4.1 g/dL
same,TBIL,[4],0.2 mg/dL
same,TC,[4],67.2 mg/dL
same,TG,[4],165.6 mg/dL
same,TP,[4],6.6 g/dL
same,gamma-GTP,[4],1.2 IU/L
same,TERMINAL_BW,[5],248 g
same,APTT,[5],16.5 s
same,Bas,[5],0%
same,Eos,[5],1%
same,Fbg,[5],230 mg/dL
same,Hb,[5],13.9 g/dL
same,Ht,[5],42%
same,Lym,[5],84%
same,MCH,[5],21.5 pg
same,MCHC,[5],33.2%
same,MCV,[5],64.8 fL
same,Mono,[5],3.8%
same,Neu,[5],11.2%
same,PT,[5],12 s
same,Plat,[5],100.7 x10_4/uL
same,RBC,[5],647.8 x10_4/ul
same,Ret,[5],6.3%
same,WBC,[5],155.1 x10_2/uL
same,KIDNEY_L,[5],1.1 g
same,KIDNEY_R,[5],1.1 g
same,KIDNEY_TOTAL,[5],2.1 g
same,LIVER,[5],12 g
same,ALP,[5],908.6 IU/L
same,ALT,[5],37.4 IU/L
same,AST,[5],63.4 IU/L
same,BUN,[5],16.8 mg/dL
same,CRE,[5],0.6 mg/dL
same,DBIL,[5],0.016 mg/dL
same,GLC,[5],193.2 mg/dL
same,K,[5],4.7 meq/L
same,Na,[5],139.3 meq/L
same,PL,[5],150.4 mg/dL
same,RALB,[5],4.1 g/dL
same,TBIL,[5],0.3 mg/dL
same,TC,[5],81.4 mg/dL
same,TG,[5],76.4 mg/dL
same,TP,[5],6 g/dL
same,gamma-GTP,[5],1 IU/L
same,TERMINAL_BW,[6],279.2 g
same,TERMINAL_BW,[7],331.4 g
same,TERMINAL_BW,[8],411.1 g
same,APTT,[6],16.6 s
same,Bas,[6],0%
same,Eos,[6],0.8%
same,Fbg,[6],223 mg/dL
same,Hb,[6],14.2 g/dL
same,Ht,[6],42.5%
same,Lym,[6],79.6%
same,MCH,[6],20.8 pg
same,MCHC,[6],33.4%
same,MCV,[6],62.3 fL
same,Mono,[6],3.8%
same,Neu,[6],16.2%
same,PT,[6],11.4 s
same,Plat,[6],116.1 x10_4/uL
same,RBC,[6],681.6 x10_4/ul
same,Ret,[6],5.7%
same,WBC,[6],115.6 x10_2/uL
same,APTT,[7],16.6 s
same,Bas,[7],0%
same,Eos,[7],0.8%
same,Fbg,[7],225.8 mg/dL
same,Hb,[7],14.8 g/dL
same,Ht,[7],44.6%
same,Lym,[7],83.2%
same,MCH,[7],20.1 pg
same,MCHC,[7],33.3%
same,MCV,[7],60.3 fL
same,Mono,[7],5.6%
same,Neu,[7],10.6%
same,PT,[7],12 s
same,Plat,[7],110.6 x10_4/uL
same,RBC,[7],740 x10_4/ul
same,Ret,[7],4.1%
same,WBC,[7],120.7 x10_2/uL
same,APTT,[8],18 s
same,Bas,[8],0%
same,Eos,[8],0.6%
same,Fbg,[8],223.8 mg/dL
same,Hb,[8],15.8 g/dL
same,Ht,[8],47.2%
same,Lym,[8],83.4%
same,MCH,[8],19.3 pg
same,MCHC,[8],33.4%
same,MCV,[8],57.7 fL
same,Mono,[8],3.6%
same,Neu,[8],12%
same,PT,[8],12.1 s
same,Plat,[8],102.8 x10_4/uL
same,RBC,[8],818.6 x10_4/ul
same,Ret,[8],2.7%
same,WBC,[8],154.6 x10_2/uL
same,KIDNEY_L,[6],1.2 g
same,KIDNEY_R,[6],1.2 g
same,KIDNEY_TOTAL,[6],2.4 g
same,KIDNEY_L,[7],1.3 g
same,KIDNEY_R,[7],1.3 g
same,KIDNEY_TOTAL,[7],2.6 g
same,KIDNEY_L,[8],1.4 g
same,KIDNEY_R,[8],1.4 g
same,KIDNEY_TOTAL,[8],2.8 g
same,LIVER,[6],14.1 g
same,LIVER,[7],14.8 g
same,LIVER,[8],16.9 g
same,ALP,[6],886.2 IU/L
same,ALT,[6],33.6 IU/L
same,AST,[6],62 IU/L
same,BUN,[6],18.8 mg/dL
same,CRE,[6],0.5 mg/dL
same,DBIL,[6],0.024 mg/dL
same,GLC,[6],188.2 mg/dL
same,K,[6],4.9 meq/L
same,Na,[6],137.7 meq/L
same,PL,[6],170.4 mg/dL
same,RALB,[6],4.1 g/dL
same,TBIL,[6],0.3 mg/dL
same,TC,[6],77.8 mg/dL
same,TG,[6],168.6 mg/dL
same,TP,[6],6.1 g/dL
same,gamma-GTP,[6],1.2 IU/L
same,ALP,[7],848.8 IU/L
same,ALT,[7],34.4 IU/L
same,AST,[7],64.4 IU/L
same,BUN,[7],18.4 mg/dL
same,CRE,[7],0.6 mg/dL
same,DBIL,[7],0.002 mg/dL
same,GLC,[7],190.2 mg/dL
same,K,[7],4.4 meq/L
same,Na,[7],140.3 meq/L
same,PL,[7],148.2 mg/dL
same,RALB,[7],4 g/dL
same,TBIL,[7],0.3 mg/dL
same,TC,[7],66.4 mg/dL
same,TG,[7],154.8 mg/dL
same,TP,[7],6.1 g/dL
same,gamma-GTP,[7],0.8 IU/L
same,ALP,[8],483.4 IU/L
same,ALT,[8],30.6 IU/L
same,AST,[8],60.4 IU/L
same,BUN,[8],19.8 mg/dL
same,CRE,[8],0.6 mg/dL
same,DBIL,[8],0.016 mg/dL
same,GLC,[8],201.4 mg/dL
same,K,[8],4.3 meq/L
same,Na,[8],140.7 meq/L
same,PL,[8],135.6 mg/dL
same,RALB,[8],4 g/dL
same,TBIL,[8],0.3 mg/dL
same,TC,[8],63.6 mg/dL
same,TG,[8],134.2 mg/dL
same,TP,[8],6.5 g/dL
same,gamma-GTP,[8],1 IU/L
